Experimental data: patent publication US20230348578A1, “CONFORMATION-SPECIFIC ANTIBODIES THAT BIND TAU PROTEIN AND USES THEREOF” (Beth Israel Deaconess Medical Center, Inc., priority 2020, published 2023)
Where a SMILES comes first, the peptide text is derived from it. The star is where a group is joined. Cbz = O=C(OCc1ccccc1)*; CH2F = FC*

System: primary neurons
Experiment: Death of primary neurons with purified cis P-tau
Format: cell-based

Question: With `COC(=O)C[C@H](NC(=O)[C@H](C)NC(=O)[C@@H](NC(=O)OCc1ccccc1)C(C)C)C(=O)CF` [Z-VAD-FMK] (Cbz-Val-Ala-Asp(OMe)-CH2F) as the compound, how does the “death in primary neurons induced by purified cis P-tau” value read?
Answer: blocked
